Source: ChEMBL document CHEMBL1150905, “Cytotoxic quassinoids from Simaba cedron” (J Nat Prod, 1998)
In brackets after ≈: the same amount, converted by molar mass.

tested on: P388; test: Cytotoxicity against mouse P388 cells after 3 days by MTT assay; format: functional, cell-based; details: P388, 72 h

| Compound | IC50 [µg/mL] |
| --- | --- |
| CC[C@@H](C)C(=O)O[C@H]1C(=O)O[C@@H]2C[C@H]3C(C)=CC(=O)[C@@H](O)[C@]3(C)[C@H]3[C@@H](O)[C@H](O)[C@]4(C)OC[C@]32[C@@H]14 [SIMALIKALACTONE D] | 0.0055 (≈ 0.0115 µM) |
| CC1=CC(=O)[C@@H](O)[C@]2(C)[C@H]3[C@@H](O)[C@H](O)[C@@]4(C)OC[C@@]35[C@@H](C[C@@H]12)OC(=O)[C@H](OC(=O)CC(C)C)[C@@H]45 [CEDRONOLACTONE A] | 0.0074 (≈ 0.0155 µM) |
| CC1=C[C@H](O)[C@@H](O)[C@]2(C)[C@H]3[C@@]4(O)OC[C@@]35[C@@H](C[C@@H]12)OC(=O)C[C@H]5[C@@H](C)[C@H]4O [CHAPARRIN] | > 100 |
| CC1=CC(=O)O[C@@H]1[C@@]1(C)C[C@H]2OC(=O)C[C@H]3[C@@H](C)[C@@H](O)[C@]4(O)OC[C@]23[C@@H]14 [AILANQUASSIN A] | 39 (≈ 107 µM) |
| CC(=O)O[C@H]1C[C@@](C)([C@H]2OC(=O)C[C@@H]2CO)C2=CC(=O)O[C@@H]3C[C@@H]4[C@](C)(C(=O)C=C[C@@]4(C)O)[C@@H]1[C@]23C [GUANEPOLIDE] | 70 (≈ 139 µM) |
| CC1=C[C@H](O)[C@@H](O)[C@]2(C)[C@H]3[C@@]4(O)OC[C@]35[C@H]([C@@H](C)[C@H]4O)[C@@H](O)C(=O)O[C@@H]5C[C@@H]12 [GLAUCARUBOL] | > 100 |
| CC1=CC(=O)O[C@H]1[C@@]1(C)C[C@H]2OC(=O)C[C@H]3[C@@H](C)[C@@H](O)[C@]4(O)OC[C@]23[C@@H]14 [CEDRONOLACTONE B] | 6.5 (≈ 17.8 µM) |
| CC1=CC(=O)O[C@@H]1[C@@]1(C)C[C@H]2OC(=O)[C@H](O)[C@H]3[C@@H](C)[C@@H](O)[C@]4(O)OC[C@@]32[C@@H]14 [POLYANDROL] | 17 (≈ 44.7 µM) |
| CC1=CC(=O)[C@@H](O)[C@]2(C)[C@H]3[C@@H](O)[C@H](O)[C@@]4(C)OC[C@@]35[C@@H](C[C@@H]12)OC(=O)[C@H](O)[C@@H]45 [YADANZIOLIDE C] | 2.4 (≈ 6.08 µM) |
| CC1=CC(=O)[C@@H](O)[C@]2(C)[C@H]3[C@@]4(O)OC[C@@]35[C@@H](C[C@@H]12)OC(=O)C[C@H]5[C@@H](C)[C@H]4O [CHAPARRINONE] | 0.92 (≈ 2.43 µM) |
| CC1=CC(=O)[C@@H](O)[C@]2(C)[C@H]3[C@]4(O)OC[C@]35[C@H]([C@@H](C)[C@H]4O)[C@@H](O)C(=O)O[C@@H]5C[C@@H]12 [GLAUCARUBOLONE] | 1.4 (≈ 3.55 µM) |
| CC1=CC(=O)O[C@H]1[C@@]1(C)C[C@H]2OC(=O)[C@H](O)[C@H]3[C@@H](C)[C@@H](O)[C@]4(O)OC[C@@]32[C@@H]14 [CEDRONOLACTONE C] | 49 (≈ 129 µM) |
